Experimental data published in patent US20260028321A1, “1,3,4-OXADIAZOLE DERIVATIVE COMPOUNDS AS HISTONE DEACETYLASE 6 INHIBITOR, AND USES THEREOF” (CHONG KUN DANG PHARMACEUTICAL CORP., priority 2022, published 2026).

Legend:
[1] = biological target: HDAC6 human recombinant (Homo sapiens (Human), UniProt Q9UBN7); experiment: HDAC6 enzyme activity inhibition assay (fluorimetric); format: biochemical; details: test substance 0.1-1000 nM; 37° C. 60 minutes, developer 30 minutes; fluorescence Ex 390, Em 460
Description: (§1) The HDAC enzyme inhibition ability of the test substance was measured using the HDAC1 Fluorimetric Drug Discovery Assay Kit (Enzo life sciences: BML-AK511) and the HDAC6 human recombinant (Calbiochem: 382180). In the HDAC1 assay, the test substance was treated at concentrations of 100, 1000, and 10000 nM, and in the HDAC6 assay, the test substance was treated at concentrations of 0.1, 1, 10, 100, and 1000 nM. After sample treatment, the samples were reacted at 37° C. for 60 minutes, followed by reaction at 37° C. for 30 minutes by treatment with a developer, and fluorescence intensities (Ex 390, Em 460) thereof were measured using FlexStatin3 (Molecular device).

[2] = biological target: HDAC1 (Homo sapiens (Human), UniProt Q13547); experiment: HDAC1 enzyme activity inhibition assay (HDAC1 Fluorimetric Drug Discovery Assay Kit); format: biochemical; details: test substance 100, 1000, 10000 nM; 37° C. 60 minutes, developer 30 minutes; fluorescence Ex 390, Em 460
Description: as §1

Sequence of HDAC6 human recombinant (Q9UBN7 whole entry): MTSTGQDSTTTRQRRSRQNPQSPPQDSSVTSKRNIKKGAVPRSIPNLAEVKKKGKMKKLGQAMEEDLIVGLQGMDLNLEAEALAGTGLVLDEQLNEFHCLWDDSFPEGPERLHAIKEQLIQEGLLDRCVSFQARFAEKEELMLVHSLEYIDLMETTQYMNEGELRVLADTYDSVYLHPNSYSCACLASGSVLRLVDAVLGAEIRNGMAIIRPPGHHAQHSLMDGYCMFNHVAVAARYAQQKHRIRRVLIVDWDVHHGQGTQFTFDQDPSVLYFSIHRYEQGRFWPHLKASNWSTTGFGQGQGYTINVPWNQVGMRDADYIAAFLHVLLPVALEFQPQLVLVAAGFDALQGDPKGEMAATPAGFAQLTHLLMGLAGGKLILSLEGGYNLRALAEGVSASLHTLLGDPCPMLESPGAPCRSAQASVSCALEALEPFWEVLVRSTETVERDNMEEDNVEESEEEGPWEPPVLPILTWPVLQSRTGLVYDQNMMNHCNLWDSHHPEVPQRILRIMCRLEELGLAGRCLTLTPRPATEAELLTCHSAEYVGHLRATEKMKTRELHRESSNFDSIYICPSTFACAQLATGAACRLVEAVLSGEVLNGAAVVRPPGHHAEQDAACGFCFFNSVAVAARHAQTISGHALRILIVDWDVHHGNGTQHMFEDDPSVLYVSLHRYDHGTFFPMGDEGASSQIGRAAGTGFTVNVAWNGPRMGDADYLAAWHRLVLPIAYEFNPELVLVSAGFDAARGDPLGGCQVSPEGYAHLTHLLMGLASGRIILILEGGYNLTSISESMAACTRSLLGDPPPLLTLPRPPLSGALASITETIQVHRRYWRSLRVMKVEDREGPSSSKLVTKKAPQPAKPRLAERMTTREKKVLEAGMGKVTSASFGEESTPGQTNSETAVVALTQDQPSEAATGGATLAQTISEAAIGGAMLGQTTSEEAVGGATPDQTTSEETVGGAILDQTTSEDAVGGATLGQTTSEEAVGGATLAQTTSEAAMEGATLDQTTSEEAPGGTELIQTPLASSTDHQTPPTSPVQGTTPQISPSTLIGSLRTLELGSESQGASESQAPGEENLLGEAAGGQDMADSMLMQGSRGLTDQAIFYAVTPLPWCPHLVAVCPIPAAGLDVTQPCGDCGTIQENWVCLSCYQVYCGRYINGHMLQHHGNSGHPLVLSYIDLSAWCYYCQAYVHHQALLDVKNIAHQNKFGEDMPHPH
Sequence of HDAC1 (Q13547 whole entry): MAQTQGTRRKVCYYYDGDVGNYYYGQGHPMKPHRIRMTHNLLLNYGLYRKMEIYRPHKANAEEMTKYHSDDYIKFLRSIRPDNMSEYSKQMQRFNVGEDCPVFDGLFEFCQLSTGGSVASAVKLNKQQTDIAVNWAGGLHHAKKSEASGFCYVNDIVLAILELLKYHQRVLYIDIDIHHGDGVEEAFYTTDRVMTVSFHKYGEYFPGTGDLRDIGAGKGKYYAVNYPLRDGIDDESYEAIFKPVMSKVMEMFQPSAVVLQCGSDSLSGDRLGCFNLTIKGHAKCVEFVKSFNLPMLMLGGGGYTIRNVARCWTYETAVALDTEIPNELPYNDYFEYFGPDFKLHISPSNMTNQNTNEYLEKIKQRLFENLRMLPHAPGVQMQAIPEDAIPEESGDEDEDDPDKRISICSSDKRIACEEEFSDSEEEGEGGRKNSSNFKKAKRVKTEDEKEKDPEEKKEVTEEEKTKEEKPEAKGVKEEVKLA

With `CN1CCN(c2c(N(Cc3ccc(-c4nnc(C(F)F)o4)cc3F)c3cc(F)cc(-c4cccnc4)c3)c(=O)c2=O)CC1` [Compound 8, 3-((4-(5-(difluoromethyl)-1,3,4-oxadiazol-2-yl)-2-fluorobenzyl)(3-fluoro-5-(pyridin-3-yl)phenyl)amino)-4-(4-methylpiperazin-1-yl)cyclobut-3-ene-1,2-dione] the IC50 [1] was 35 nM and the IC50 [2] was greater than 10000 nM.

`CN1C[C@@H]2C[C@H]1CN2c1c(N(Cc2ncc(-c3nnc(C(F)F)o3)cc2F)c2ccccc2)c(=O)c1=O` [Compound 20, 3-(((5-(5-(difluoromethyl)-1,3,4-oxadiazol-2-yl)-3-fluoropyridin-2-yl)methyl)(phenyl)amino)-4-((1S,4S)-5-methyl-2,5-diazabicyclo[2.2.1]heptan-2-yl)cyclobut-3-ene-1,2-dione] was tested, and the IC50 [2] was greater than 10000 nM.

With `O=c1c(N(Cc2ccc(-c3nnc(C(F)F)o3)cc2F)c2ccccc2)c(N2C[C@@H]3C[C@H]2CN3C2COC2)c1=O` [Compound 13, 3-((4-(5-(difluoromethyl)-1,3,4-oxadiazol-2-yl)-2-fluorobenzyl)(phenyl)amino)-4-((1S,4S)-5-(oxetan-3-yl)-2,5-diazabicyclo[2.2.1]heptan-2-yl)cyclobut-3-ene-1,2-dione] the IC50 [1] was 24 nM and the IC50 [2] was greater than 10000 nM.

Compound `CN1CCN(c2c(N(Cc3ccc(-c4nnc(C(F)F)o4)cc3)c3ccccc3)c(=O)c2=O)CC1` [Compound 4, 3-((4-(5-(difluoromethyl)-1,3,4-oxadiazol-2-yl)benzyl)(phenyl)amino)-4-(4-methylpiperazin-1-yl)cyclobut-3-ene-1,2-dione] has an IC50 [1] of 31 nM and an IC50 [2] greater than 10000 nM.

`CN1C[C@@H]2C[C@H]1CN2c1c(N(Cc2ccc(-c3nnc(C(F)F)o3)cc2F)c2ccccc2)c(=O)c1=O` [Compound 14, 3-((4-(5-(difluoromethyl)-1,3,4-oxadiazol-2-yl)-2-fluorobenzyl)(phenyl)amino)-4-((1S,4S)-5-methyl-2,5-diazabicyclo[2.2.1]heptan-2-yl)cyclobut-3-ene-1,2-dione] was tested, and the IC50 [2] was greater than 10000 nM.

Compound `O=c1c(N2CC3(C2)CN(C2COC2)C3)c(N(Cc2ccc(-c3nnc(C(F)F)o3)cc2F)c2ccccc2)c1=O` [Compound 10, 3-((4-(5-(difluoromethyl)-1,3,4-oxadiazol-2-yl)-2-fluorobenzyl)(phenyl)amino)-4-(6-(oxetan-3-yl)-2,6-diazaspiro[3.3]heptan-2-yl)cyclobut-3-ene-1,2-dione] has an IC50 [1] of 56 nM and an IC50 [2] greater than 10000 nM.

`CN1CCN(c2c(N(Cc3ccc(-c4nnc(C(F)F)o4)cn3)c3cccc(-c4ccncc4)c3)c(=O)c2=O)CC1` [Compound 19, 3-(((5-(5-(difluoromethyl)-1,3,4-oxadiazol-2-yl)pyridin-2-yl)methyl)(3-(pyridin-4-y 1)phenyl)amino)-4-(4-methylpiperazin-1-yl)cyclobut-3-ene-1,2-dione] showed an IC50 [1] of 102 nM and an IC50 [2] greater than 10000 nM.

Work on `CC(C)N1C[C@@H]2C[C@H]1CN2c1c(N(Cc2ccc(-c3nnc(C(F)F)o3)cn2)c2ccccc2)c(=O)c1=O` [Compound 16, 3-(((5-(5-(difluoromethyl)-1,3,4-oxadiazol-2-yl)pyridin-2-yl)methyl)(phenyl)amino)-4-((1S,4S)-5-isopropyl-2,5-diazabicyclo[2.2.1]heptan-2-yl)cyclobut-3-ene-1,2-dione] yielded an IC50 [1] of 28 nM and an IC50 [2] greater than 10000 nM.

In the case of `O=c1c(N2CCN(C3COC3)CC2)c(N(Cc2ccc(-c3nnc(C(F)F)o3)cc2F)c2ccc(F)c(F)c2)c1=O` [Compound 23, 3-((4-(5-(difluoromethyl)-1,3,4-oxadiazol-2-yl)-2-fluorobenzyl)(3,4-difluorophenyl)amino)-4-(4-(oxetan-3-yl)piperazin-1-yl)cyclobut-3-ene-1,2-dione], the IC50 [1] is reported as 50 nM and the IC50 [2] is reported as greater than 10000 nM.

Work on `CN1CCN(c2c(N(Cc3ccc(-c4nnc(C(F)F)o4)cc3F)c3cccc(Br)c3)c(=O)c2=O)CC1` [Compound 12, 3-((3-bromophenyl)(4-(5-(difluoromethyl)-1,3,4-oxadiazol-2-yl)-2-fluorobenzyl)amino)-4-(4-methylpiperazin-1-yl)cyclobut-3-ene-1,2-dione] yielded an IC50 [1] of 30 nM and an IC50 [2] greater than 10000 nM.

For `CN1CCN(c2c(N(Cc3ccc(-c4nnc(C(F)F)o4)cc3F)c3ccccc3)c(=O)c2=O)CC1` [Compound 1, 3-((4-(5-(difluoromethyl)-1,3,4-oxadiazol-2-yl)-2-fluorobenzyl)(phenyl)amino)-4-(4-methylpiperazin-1-yl)cyclobut-3-ene-1,2-dione], the IC50 [1] was 22 nM and the IC50 [2] was greater than 10000 nM.

`O=c1c(N2CCOCC2)c(N(Cc2ccc(-c3nnc(C(F)(F)F)o3)cc2)c2ccccc2)c1=O` [Compound 24, 3-morpholino-4-[N-[[4-[5-(trifluoromethyl)-1,3,4-oxadiazol-2-yl]phenyl]methyl]anilino]cyclobut-3-ene-1,2-dione] gave an IC50 [1] of 161 nM and an IC50 [2] greater than 10000 nM.

Compound `O=c1c(N2CCS(=O)(=O)CC2)c(N(Cc2ccc(-c3nnc(C(F)F)o3)cc2F)c2ccccc2)c1=O` [Compound 3, 3-((4-(5-(difluoromethyl)-1,3,4-oxadiazol-2-yl)-2-fluorobenzyl)(phenyl)amino)-4-(1,1-dioxidothiomorpholino)cyclobut-3-ene-1,2-dione] has an IC50 [1] of 27 nM and an IC50 [2] greater than 10000 nM.

`O=c1c(N(Cc2ncc(-c3nnc(C(F)F)o3)cc2F)c2ccccc2)c(N2C[C@@H]3C[C@H]2CN3C2COC2)c1=O` [Compound 21, 3-(((5-(5-(difluoromethyl)-1,3,4-oxadiazol-2-yl)-3-fluoropyridin-2-yl)methyl)(phenyl)amino)-4-((1S,4S)-5-(oxetan-3-yl)-2,5-diazabicyclo[2.2.1]heptan-2-yl)cyclobut-3-ene-1,2-dione] gave an IC50 [2] greater than 10000 nM.

For `O=c1c(N2CCOCC2)c(N(Cc2ccc(-c3nnc(C(F)F)o3)cc2F)c2ccccc2)c1=O` [Compound 2, 3-((4-(5-(difluoromethyl)-1,3,4-oxadiazol-2-yl)-2-fluorobenzyl)(phenyl)amino)-4-morpholinocyclobut-3-ene-1,2-dione], the IC50 [2] was greater than 10000 nM.

`O=c1c(N2CCS(=O)(=O)CC2)c(N(Cc2ccc(-c3nnc(C(F)F)o3)cc2)c2ccccc2)c1=O` [Compound 5, 3-((4-(5-(difluoromethyl)-1,3,4-oxadiazol-2-yl)benzyl)(phenyl)amino)-4-(1,1-dioxidothiomorpholino)cyclobut-3-ene-1,2-dione] was tested, and the IC50 [1] was 29 nM and the IC50 [2] was greater than 10000 nM.

With `O=c1c(N2CCS(=O)(=O)CC2)c(N(Cc2ncc(-c3nnc(C(F)F)o3)cc2F)c2ccccc2)c1=O` [Compound 6, 3-(((5-(5-(difluoromethyl)-1,3,4-oxadiazol-2-yl)-3-fluoropyridin-2-yl)methyl)(phenyl)amino)-4-(1,1-dioxidothiomorpholino)cyclobut-3-ene-1,2-dione] the IC50 [2] was greater than 10000 nM.

In the case of `CN1CCN(c2c(N(Cc3ccc(-c4nnc(C(F)F)o4)cc3F)c3ccc(F)c(F)c3)c(=O)c2=O)CC1` [Compound 22, 3-((4-(5-(difluoromethyl)-1,3,4-oxadiazol-2-yl)-2-fluorobenzyl)(3,4-difluorophenyl)amino)-4-(4-methylpiperazin-1-yl)cyclobut-3-ene-1,2-dione], the IC50 [1] is reported as 64 nM and the IC50 [2] is reported as greater than 10000 nM.

Work on `CN1CC2(C1)CN(c1c(N(Cc3ccc(-c4nnc(C(F)F)o4)cc3)c3ccccc3)c(=O)c1=O)C2` [Compound 11, 3-((4-(5-(difluoromethyl)-1,3,4-oxadiazol-2-yl)benzyl)(phenyl)amino)-4-(6-methyl-2,6-diazaspyro[3.3]heptan-2-yl)cyclobut-3-ene-1,2-dione] yielded an IC50 [1] of 60 nM and an IC50 [2] greater than 10000 nM.

Work on `CN1CCN(c2c(N(Cc3ccc(-c4nnc(C(F)F)o4)cn3)c3cccc(-c4cccnc4)c3)c(=O)c2=O)CC1` [Compound 18, 3-(((5-(5-(difluoromethyl)-1,3,4-oxadiazol-2-yl)pyridin-2-yl)methyl)(3-(pyridin-3-yl)phenyl)amino)-4-(4-methylpiperazin-1-yl)cyclobut-3-ene-1,2-dione] yielded an IC50 [1] of 51 nM and an IC50 [2] greater than 10000 nM.

Compound `CN1C[C@@H]2C[C@H]1CN2c1c(N(Cc2ccc(-c3nnc(C(F)F)o3)cn2)c2ccccc2)c(=O)c1=O` [Compound 15, 3-(((5-(5-(difluoromethyl)-1,3,4-oxadiazol-2-yl)pyridin-2-yl)methyl)(phenyl)amino)-4-((1S,4S)-5-methyl-2,5-diazabicyclo[2.2.1]heptan-2-yl)cyclobut-3-ene-1,2-dione] has an IC50 [1] of 22 nM and an IC50 [2] greater than 10000 nM.

`CN1CCN(c2c(N(Cc3ccc(-c4nnc(C(F)F)o4)cc3F)c3cc(F)cc(Br)c3)c(=O)c2=O)CC1` [Compound 7, 3-((3-bromo-5-fluorophenyl)(4-(5-(difluoromethyl)-1,3,4-oxadiazol-2-yl)-2-fluorobenzyl)amino)-4-(4-methylpiperazin-1-yl)cyclobut-3-ene-1,2-dione] was tested, and the IC50 [1] was 36 nM and the IC50 [2] was greater than 10000 nM.

Compound `O=c1c(N(Cc2ccc(-c3nnc(C(F)F)o3)cn2)c2ccccc2)c(N2C[C@@H]3C[C@H]2CN3C2COC2)c1=O` [Compound 17, 3-(((5-(5-(difluoromethyl)-1,3,4-oxadiazol-2-yl)pyridin-2-yl)methyl)(phenyl)amino)-4-((1S,4S)-5-(oxetan-3-yl)-2,5-diazabicyclo[2.2.1]heptan-2-yl)cyclobut-3-ene-1,2-dione] has an IC50 [1] of 43 nM and an IC50 [2] greater than 10000 nM.
